{"source": "ChEMBL document CHEMBL2429729", "about": "“Synthesis, biological evaluation, and molecular modeling of (E)-2-aryl-5-styryl-1,3,4-oxadiazole derivatives as acetylcholine esterase inhibitors” (Med Chem Res, 2013)"}
{"target": "Acetylcholinesterase (Electrophorus electricus, UniProt O42275)", "sequence (O42275 whole entry)": "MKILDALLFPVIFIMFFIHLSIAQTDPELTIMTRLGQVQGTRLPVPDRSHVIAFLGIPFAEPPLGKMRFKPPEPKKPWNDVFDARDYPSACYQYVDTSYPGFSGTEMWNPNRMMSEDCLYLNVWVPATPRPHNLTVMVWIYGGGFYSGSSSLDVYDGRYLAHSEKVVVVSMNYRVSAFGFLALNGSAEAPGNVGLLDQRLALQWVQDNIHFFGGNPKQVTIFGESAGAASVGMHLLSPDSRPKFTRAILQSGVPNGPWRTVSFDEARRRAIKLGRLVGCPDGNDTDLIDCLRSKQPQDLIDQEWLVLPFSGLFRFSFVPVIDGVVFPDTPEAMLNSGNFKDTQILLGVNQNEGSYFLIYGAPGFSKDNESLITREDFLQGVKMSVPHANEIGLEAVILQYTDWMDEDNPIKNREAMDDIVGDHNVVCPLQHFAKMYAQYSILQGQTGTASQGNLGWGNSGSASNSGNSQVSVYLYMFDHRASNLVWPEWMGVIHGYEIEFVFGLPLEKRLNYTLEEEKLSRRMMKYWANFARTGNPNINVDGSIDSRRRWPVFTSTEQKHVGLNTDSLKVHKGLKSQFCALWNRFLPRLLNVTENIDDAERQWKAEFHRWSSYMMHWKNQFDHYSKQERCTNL", "assay": "Inhibition of electric eel AChE using acetylthiocholine as substrate incubated for 20 mins prior to substrate addition measured every 30 secs for 4 mins by Ellman's method", "units": {"IC50": "µM"}}
{"smiles": "COc1cc(/C=C/c2nnc(-c3ccc(C)cc3)o2)cc(OC)c1OC", "IC50": 60.2}
{"smiles": "COc1cc(/C=C/c2nnc(-c3ccc(F)cc3Cl)o2)cc(OC)c1OC", "IC50": 60.2}
{"smiles": "COc1cc(/C=C/c2nnc(-c3ccc([N+](=O)[O-])cc3)o2)cc(OC)c1OC", "IC50": 49}
{"smiles": "C(=C\\c1nnc(-c2ccccc2)o1)/c1ccc2c(c1)OCO2", "IC50": 50.1}
{"smiles": "Clc1ccc(-c2nnc(/C=C/c3ccc4c(c3)OCO4)o2)c(Cl)c1", "IC50": 50.3}
{"smiles": "Clc1ncccc1-c1nnc(/C=C/c2ccc3c(c2)OCO3)o1", "IC50": 54.3}
{"smiles": "COc1ccc(-c2nnc(/C=C/c3ccc4c(c3)OCO4)o2)cc1", "IC50": 42.8}
{"smiles": "COc1cc(/C=C/c2nnc(-c3cc(OC)c(OC)c(OC)c3)o2)cc(OC)c1OC", "IC50": 61.5}
{"smiles": "COc1ccc(-c2nnc(/C=C/c3ccc4c(c3)OCO4)o2)cc1OC", "IC50": 40.5}
{"smiles": "C(=C\\c1nnc(-c2cccnc2)o1)/c1ccc2c(c1)OCO2", "IC50": 48.5}
{"smiles": "COc1cc(/C=C/c2nnc(-c3ccc(Cl)cc3Cl)o2)cc(OC)c1OC", "IC50": 62.2}
{"smiles": "COc1cc(/C=C/c2nnc(-c3cccnc3)o2)cc(OC)c1OC", "IC50": 65}
{"smiles": "O=[N+]([O-])c1cccc(-c2nnc(/C=C/c3ccc4c(c3)OCO4)o2)c1", "IC50": 49.4}
{"smiles": "COc1cc(/C=C/c2nnc(-c3ccccc3Br)o2)cc(OC)c1OC", "IC50": 64.9}
{"smiles": "COc1cc(/C=C/c2nnc(-c3cccnc3Cl)o2)cc(OC)c1OC", "IC50": 61.2}
{"smiles": "O=[N+]([O-])c1ccc(-c2nnc(/C=C/c3ccc4c(c3)OCO4)o2)cc1", "IC50": 37.6}
{"smiles": "COc1cc(/C=C/c2nnc(-c3cncc(Br)c3)o2)cc(OC)c1OC", "IC50": 62.8}
{"smiles": "Brc1cncc(-c2nnc(/C=C/c3ccc4c(c3)OCO4)o2)c1", "IC50": 52.5}
{"smiles": "COc1cc(/C=C/c2nnc(-c3ccco3)o2)cc(OC)c1OC", "IC50": 13.7}
{"smiles": "COc1cc(/C=C/c2nnc(-c3ccccc3)o2)cc(OC)c1OC", "IC50": 24.9}
{"smiles": "Fc1ccc(-c2nnc(/C=C/c3ccc4c(c3)OCO4)o2)cc1Cl", "IC50": 49.6}
{"smiles": "Fc1ccc(-c2nnc(/C=C/c3ccc4c(c3)OCO4)o2)c(Cl)c1", "IC50": 19.6}
{"smiles": "Brc1ccccc1-c1nnc(/C=C/c2ccc3c(c2)OCO3)o1", "IC50": 40.2}
{"smiles": "COc1cc(-c2nnc(/C=C/c3ccc4c(c3)OCO4)o2)cc(OC)c1OC", "IC50": 48.6}
{"smiles": "COc1cc(/C=C/c2nnc(-c3cc4ccccc4o3)o2)cc(OC)c1OC", "IC50": 60.4}
{"smiles": "COc1cc(/C=C/c2nnc(-c3cccc([N+](=O)[O-])c3)o2)cc(OC)c1OC", "IC50": 65.8}
{"smiles": "Cc1ccc(-c2nnc(/C=C/c3ccc4c(c3)OCO4)o2)cc1", "IC50": 45.3}
{"smiles": "COc1ccc(-c2nnc(/C=C/c3cc(OC)c(OC)c(OC)c3)o2)cc1", "IC50": 61.2}
{"smiles": "COc1cc(/C=C/c2nnc(-c3ccccc3Cl)o2)cc(OC)c1OC", "IC50": 58.1}
{"smiles": "Clc1ccccc1-c1nnc(/C=C/c2ccc3c(c2)OCO3)o1", "IC50": 47.4}
